Starred links: 1 amine or outer side, 2 acyl side, 3 side chain; linkers in the order of their positions; H or OH if unused. Positions of bridges follow the written chain, without caps; N, C: chain ends. Non-standard residues stand in square brackets, D forms with d. Residues, ends and D or L forms follow the SMILES beside them. Groups on a side chain read outwards from the residue. *: point of attachment. X2 = O=C(O)CN1CCN(CC(=O)O)CCN(CC(=O)NCCOCCOCCOCCOCC(=O)*)CCN(CC(=O)O)CC1; Ala(piperidin-4-yl) = O=C([C@H](CC1CCN([*:3])CC1)N[*:1])[*:2]; Phe(3-CH2NH2) = O=C([C@H](Cc1cccc(CN[*:3])c1)N[*:1])[*:2]; DOTA = O=C(O)CN1CCN(CC(=O)O)CCN(CC(=O)*)CCN(CC(=O)O)CC1; Trp(5-F) = N[C@@H](Cc1c[nH]c2ccc(F)cc12)C(=O)O; Pro(trans-4-F) = O=C(O)[C@@H]1C[C@@H](F)CN1; Pro(cis-4-F) = O=C(O)[C@@H]1C[C@H](F)CN1; Phe(4-F) = N[C@@H](Cc1ccc(F)cc1)C(=O)O; γGlu = O=C(O)[C@H](CCC(=O)[*:2])N[*:1]; 1Nal = N[C@@H](Cc1cccc2ccccc12)C(=O)O; Ala(4-THP) = N[C@@H](CC1CCOCC1)C(=O)O; 4Pal = N[C@@H](Cc1ccncc1)C(=O)O; Tle = CC(C)(C)[C@H](N)C(=O)O; hLeu = CC(C)CC[C@H](N)C(=O)O; Pip = O=C(O)[C@@H]1CCCCN1
Target: T1, human 4lg B7-H3 (Homo sapiens, UniProt Q5ZPR3)
T1 sequence (Q5ZPR3 29-534): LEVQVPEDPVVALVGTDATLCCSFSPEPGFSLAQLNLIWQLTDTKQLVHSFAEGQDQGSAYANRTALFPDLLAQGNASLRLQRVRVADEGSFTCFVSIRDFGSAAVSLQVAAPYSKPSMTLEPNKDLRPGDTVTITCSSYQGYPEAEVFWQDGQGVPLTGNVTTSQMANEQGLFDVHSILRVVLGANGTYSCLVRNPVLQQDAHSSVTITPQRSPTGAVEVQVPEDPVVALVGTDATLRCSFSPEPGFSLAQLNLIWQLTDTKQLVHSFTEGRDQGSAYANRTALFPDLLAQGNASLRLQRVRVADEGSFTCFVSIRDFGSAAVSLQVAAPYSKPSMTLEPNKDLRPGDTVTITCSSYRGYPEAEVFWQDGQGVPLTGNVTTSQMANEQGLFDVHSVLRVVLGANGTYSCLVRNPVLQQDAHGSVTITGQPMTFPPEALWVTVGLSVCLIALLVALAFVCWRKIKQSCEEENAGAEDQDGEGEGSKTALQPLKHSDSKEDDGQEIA
Assay: Affinity determination by surface plasmon resonance (SPR) to 4Ig B7-H3
Conditions: SPR KD—25° C., 4Ig B7-H3; 25° C. flow cell temperature

Row | SMILES | Kd
1 | CC(=O)N[C@@H](CCC(C)C)C(=O)N[C@@H](Cc1ccc(O)cc1)C(=O)N[C@H]1CSSC[C@@H](C(=O)N[C@@H](Cc2cccc3ccccc23)C(=O)N[C@@H](Cc2ccccc2)C(=O)N2CCC[C@H]2C(N)=O)NC(=O)[C@H](Cc2ccc(O)cc2)NC(=O)[C@H](C(C)C)NC(=O)[C@H](CC(=O)O)NC(=O)[C@H](Cc2cccc(CNC(=O)CC[C@H](NC(=O)CC[C@H](NC(=O)CN3CCN(CC(=O)O)CCN(CC(=O)O)CCN(CC(=O)O)CC3)C(=O)O)C(=O)O)c2)NC(=O)[C@H](CCCCN)NC(=O)CNC(=O)[C@H](C(C)(C)C)NC1=O [compound 255, Ac-hLeu-Y-C-Tbg-G-K-MAF(gE-gE-DOTA)-D-V-Y-C-1Nal-F-Pro-CONH2] (Ac-[hLeu]YC[Tle]GK[Phe(3-CH2NH2)]([γGlu-γGlu-DOTA])DVYC[1Nal]FP-NH2; disulfide 3-11) | 1 to 10 nM
2 | CC(=O)N[C@@H](CCC(C)C)C(=O)N[C@@H](Cc1ccc(O)cc1)C(=O)N[C@H]1CSSC[C@@H](C(=O)N[C@@H](Cc2cccc3ccccc23)C(=O)N[C@@H](Cc2ccccc2)C(=O)N2CCC[C@H]2C(N)=O)NC(=O)[C@H](Cc2ccc(O)cc2)NC(=O)[C@H](C(C)C)NC(=O)[C@H](CC(=O)O)NC(=O)[C@H](Cc2cccc(CNC(=O)COCCOCCOCCOCCNC(=O)CN3CCN(CC(=O)O)CCN(CC(=O)O)CCN(CC(=O)O)CC3)c2)NC(=O)[C@H](CCCCN)NC(=O)CNC(=O)[C@H](C(C)(C)C)NC1=O [compound 257, Ac-hLeu-Y-C-Tbg-G-K-MAF(PEG4-DOTA)-D-V-Y-C-1Nal-F-Pro-CONH2] (Ac-[hLeu]YC[Tle]GK[Phe(3-CH2NH2)](X2)DVYC[1Nal]FP-NH2; disulfide 3-11) | 1 to 10 nM
3 | CC(=O)N[C@@H](CCC(C)C)C(=O)N[C@@H](Cc1ccc(O)cc1)C(=O)N[C@H]1CSSC[C@@H](C(=O)N[C@@H](Cc2cccc3ccccc23)C(=O)N[C@@H](Cc2ccccc2)C(=O)N2CCC[C@H]2C(N)=O)NC(=O)[C@H](Cc2ccc(O)cc2)NC(=O)[C@H](C(C)C)NC(=O)[C@H](CC(=O)O)NC(=O)[C@H](Cc2cccc(CNC(=O)CC[C@H](NC(=O)CC[C@H](NC(=O)CC[C@H](NC(=O)CN3CCN(CC(=O)O)CCN(CC(=O)O)CCN(CC(=O)O)CC3)C(=O)O)C(=O)O)C(=O)O)c2)NC(=O)[C@H](CCCCN)NC(=O)CNC(=O)[C@H](C(C)(C)C)NC1=O [compound 258, Ac-hLeu-Y-C-Tbg-G-K-MAF(gE-gE-gE-DOTA)-D-V-Y-C-1Nal-F-Pro-CONH2] (Ac-[hLeu]YC[Tle]GK[Phe(3-CH2NH2)]([γGlu-γGlu-γGlu-DOTA])DVYC[1Nal]FP-NH2; disulfide 3-11) | 1 to 10 nM
4 | CC[C@H](C)[C@@H]1NC(=O)[C@@H](NC(=O)[C@H](Cc2ccc(O)cc2)NC(=O)[C@H](CCC(C)C)NC(C)=O)CSSC[C@@H](C(=O)N[C@@H](Cc2c[nH]c3ccc(F)cc23)C(=O)N[C@@H](Cc2ccccc2)C(=O)N2CCC[C@H]2C(N)=O)NC(=O)[C@H](Cc2ccc(O)cc2)NC(=O)[C@H](C(C)C)NC(=O)[C@H](CC(=O)O)NC(=O)[C@H](Cc2ccncc2)NC(=O)[C@H](CCCCNC(=O)CN2CCN(CC(=O)O)CCN(CC(=O)O)CCN(CC(=O)O)CC2)NC(=O)CNC1=O [compound 260, Ac-hLeu-Y-C-Ile-G-Lys(DOTA)-4PyA-D-V-Y-C-5FW-F-Pro-CONH2] (Ac-[hLeu]YCIGK(DOTA)[4Pal]DVYC[Trp(5-F)]FP-NH2; disulfide 3-11) | 1 to 10 nM
5 | CC[C@H](C)[C@@H]1NC(=O)[C@@H](NC(=O)[C@H](Cc2ccc(O)cc2)NC(=O)[C@H](CCC(C)C)NC(C)=O)CSSC[C@@H](C(=O)N[C@@H](Cc2c[nH]c3ccc(F)cc23)C(=O)N[C@@H](Cc2ccccc2)C(=O)N2CCC[C@H]2C(N)=O)NC(=O)[C@H](Cc2ccc(O)cc2)NC(=O)[C@H](C(C)C)NC(=O)[C@H](CC(=O)O)NC(=O)[C@H](CC2CCOCC2)NC(=O)[C@H](CCCCNC(=O)CN2CCN(CC(=O)O)CCN(CC(=O)O)CCN(CC(=O)O)CC2)NC(=O)CNC1=O [compound 261, Ac-hLeu-Y-C-Ile-G-Lys(DOTA)-ThpA-D-V-Y-C-5FW-F-Pro-CONH2] (Ac-[hLeu]YCIGK(DOTA)[Ala(4-THP)]DVYC[Trp(5-F)]FP-NH2; disulfide 3-11) | 1 to 10 nM
6 | CC(=O)N[C@@H](CCC(C)C)C(=O)N[C@@H](Cc1ccc(O)cc1)C(=O)N[C@H]1CSSC[C@@H](C(=O)N[C@@H](Cc2c[nH]c3ccc(F)cc23)C(=O)N[C@@H](Cc2ccccc2)C(=O)N2CCC[C@H]2C(=O)O)NC(=O)[C@H](Cc2ccc(O)cc2)NC(=O)[C@H](C(C)C)NC(=O)[C@H](CC(=O)O)NC(=O)[C@H](Cc2cccc(CNC(=O)CN3CCN(CC(=O)O)CCN(CC(=O)O)CCN(CC(=O)O)CC3)c2)NC(=O)[C@H](CCCCN)NC(=O)CNC(=O)[C@H](C(C)C)NC1=O [compound 262, Ac-hLeu-Y-C-V-G-K-MAF(DOTA)-D-V-Y-C-5FW-F-Pro-COOH] (Ac-[hLeu]YCVGK[Phe(3-CH2NH2)](DOTA)DVYC[Trp(5-F)]FP-OH; disulfide 3-11) | 10 to 100 nM
7 | CC(=O)N[C@@H](CCC(C)C)C(=O)N[C@@H](Cc1ccc(O)cc1)C(=O)N[C@H]1CSSC[C@@H](C(=O)N[C@@H](Cc2cccc3ccccc23)C(=O)N[C@@H](Cc2ccccc2)C(=O)N2C[C@@H](F)C[C@H]2C(=O)O)NC(=O)[C@H](Cc2ccc(O)cc2)NC(=O)[C@H](C(C)C)NC(=O)[C@H](CC(=O)O)NC(=O)[C@H](Cc2ccncc2)NC(=O)[C@H](CCCCNC(=O)CN2CCN(CC(=O)O)CCN(CC(=O)O)CCN(CC(=O)O)CC2)NC(=O)CNC(=O)[C@H](C(C)(C)C)NC1=O [compound 263, Ac-hLeu-Y-C-Tbg-G-Lys(DOTA)-4PyA-D-V-Y-C-1Nal-F-cis4FPro-CONH2] (Ac-[hLeu]YC[Tle]GK(DOTA)[4Pal]DVYC[1Nal]F[Pro(cis-4-F)]-OH; disulfide 3-11) | 10 to 100 nM
8 | CC(=O)N[C@@H](CCC(C)C)C(=O)N[C@@H](Cc1ccc(O)cc1)C(=O)N[C@H]1CSSC[C@@H](C(=O)N[C@@H](Cc2cccc3ccccc23)C(=O)N[C@@H](Cc2ccccc2)C(=O)N2C[C@H](F)C[C@H]2C(=O)O)NC(=O)[C@H](Cc2ccc(O)cc2)NC(=O)[C@H](C(C)C)NC(=O)[C@H](CC(=O)O)NC(=O)[C@H](Cc2ccncc2)NC(=O)[C@H](CCCCNC(=O)CN2CCN(CC(=O)O)CCN(CC(=O)O)CCN(CC(=O)O)CC2)NC(=O)CNC(=O)[C@H](C(C)(C)C)NC1=O [compound 264, Ac-hLeu-Y-C-Tbg-G-Lys(DOTA)-4PyA-D-V-Y-C-1Nal-F-trans4FPro-CONH2] (Ac-[hLeu]YC[Tle]GK(DOTA)[4Pal]DVYC[1Nal]F[Pro(trans-4-F)]-OH; disulfide 3-11) | 1 to 10 nM
9 | CC(=O)N[C@@H](CCC(C)C)C(=O)N[C@@H](Cc1ccc(O)cc1)C(=O)N[C@H]1CSSC[C@@H](C(=O)N[C@@H](Cc2cccc3ccccc23)C(=O)N[C@@H](Cc2ccccc2)C(=O)N2CCCC[C@H]2C(=O)O)NC(=O)[C@H](Cc2ccc(O)cc2)NC(=O)[C@H](C(C)C)NC(=O)[C@H](CC(=O)O)NC(=O)[C@H](Cc2ccncc2)NC(=O)[C@H](CCCCNC(=O)CN2CCN(CC(=O)O)CCN(CC(=O)O)CCN(CC(=O)O)CC2)NC(=O)CNC(=O)[C@H](C(C)(C)C)NC1=O [compound 265, Ac-hLeu-Y-C-Tbg-G-Lys(DOTA)-4PyA-D-V-Y-C-1Nal-F-Pip acid-CONH2] (Ac-[hLeu]YC[Tle]GK(DOTA)[4Pal]DVYC[1Nal]F[Pip]-OH; disulfide 3-11) | 10 to 100 nM
10 | CC(=O)N[C@@H](CCC(C)C)C(=O)N[C@@H](Cc1ccc(O)cc1)C(=O)N[C@H]1CSSC[C@@H](C(=O)N[C@@H](Cc2c[nH]c3ccc(F)cc23)C(=O)N[C@@H](Cc2ccccc2)C(=O)N2CCC[C@H]2C(=O)N[C@H](CCCCNC(=O)CN2CCN(CC(=O)O)CCN(CC(=O)O)CCN(CC(=O)O)CC2)C(N)=O)NC(=O)[C@H](Cc2ccc(O)cc2)NC(=O)[C@H](C(C)C)NC(=O)[C@H](CC(=O)O)NC(=O)[C@H](CC2CCOCC2)NC(=O)[C@H](CCCCN)NC(=O)CNC(=O)[C@H](C(C)C)NC1=O [compound 271, Ac-hLeu-Y-C-V-G-K-ThpA-D-V-Y-C-5FW-F-Pro-dLys(DOTA)-CONH2] (Ac-[hLeu]YCVGK[Ala(4-THP)]DVYC[Trp(5-F)]FP[dK](DOTA)-NH2; disulfide 3-11) | < 1 nM
11 | CC(C)CC[C@H](NC(=O)CC[C@H](NC(=O)CC[C@H](NC(=O)CC[C@H](NC(=O)CN1CCN(CC(=O)O)CCN(CC(=O)O)CCN(CC(=O)O)CC1)C(=O)O)C(=O)O)C(=O)O)C(=O)N[C@@H](Cc1ccc(F)cc1)C(=O)N[C@H]1CSSC[C@@H](C(=O)N[C@@H](Cc2cccc3ccccc23)C(=O)N[C@@H](Cc2ccccc2)C(=O)N2CCC[C@H]2C(N)=O)NC(=O)[C@H](Cc2ccc(O)cc2)NC(=O)[C@H](C(C)C)NC(=O)[C@H](CC(=O)O)NC(=O)[C@H](CC2CCOCC2)NC(=O)[C@H](CC2CCNCC2)NC(=O)CNC(=O)[C@H](C(C)(C)C)NC1=O [compound 272, DOTA-gE-gE-gE-hLeu-4FPhe-C-Tbg-G-PipAla-ThpA-D-V-Y-C-1Nal-F-Pro-CONH2] ({DOTA-γGlu-γGlu-γGlu}-[hLeu][Phe(4-F)]C[Tle]G[Ala(piperidin-4-yl)][Ala(4-THP)]DVYC[1Nal]FP-NH2; disulfide 3-11) | 100 to 300 nM
12 | CC(=O)N[C@@H](CCC(C)C)C(=O)N[C@@H](Cc1ccc(O)cc1)C(=O)N[C@H]1CSSC[C@@H](C(=O)N[C@@H](Cc2c[nH]c3ccc(F)cc23)C(=O)N[C@@H](Cc2ccccc2)C(=O)N2CCC[C@H]2C(N)=O)NC(=O)[C@H](Cc2ccc(O)cc2)NC(=O)[C@H](C(C)C)NC(=O)[C@H](CC(=O)O)NC(=O)[C@H](CC2CCOCC2)NC(=O)[C@H](CCCCNC(=O)CN2CCN(CC(=O)O)CCN(CC(=O)O)CCN(CC(=O)O)CC2)NC(=O)CNC(=O)[C@H](C(C)(C)C)NC1=O [compound 273, Ac-hLeu-Y-C-Tbg-G-Lys(DOTA)-ThpA-D-V-Y-C-5FW-F-Pro-CONH2] (Ac-[hLeu]YC[Tle]GK(DOTA)[Ala(4-THP)]DVYC[Trp(5-F)]FP-NH2; disulfide 3-11) | 10 to 100 nM
